Structures can show the parent of a compound that is named as a salt.
How the values were obtained:
PSN-1 cells [1] = test: 2D cytotoxicity, MTT assay, PSN-1; assay type: cell-based; conditions: Homo sapiens, PSN1, 72 h, read-out: IC50 ±S.D. PSN-1 (2D cytotoxicity)
Method: (§1) All newly synthesized compounds were then screened for their cytotoxic activity against two human PDAC cell lines, namely a KRAS-wild-type PDAC cell line (BxPC-3 cells) and a KRAS-mutant PDAC cell line (PSN-1 cells). […] The cytotoxicity parameters, expressed in terms of IC50 and obtained after 72 h of drug exposure by MTT assay, are listed in the Supplementary Materials (Table S2).
(§2) The growth inhibitory effect on tumor cells was evaluated by means of the MTT assay. Briefly, 3–8 × 10^3 cells/well, dependent upon the growth characteristics of the cell line, were seeded in 96-well microplates in growth medium (100 μL). After 24 h, the medium was removed and replaced with a fresh one containing the compound to be studied at the appropriate concentration. Triplicate cultures were established for each treatment. After 72 h, each well was treated with 10 μL of a 5 mg/mL MTT saline solution, and following 5 h of incubation, 100 μL of a sodium dodecyl sulfate (SDS) solution in HCl 0.01 M was added. After overnight incubation, cell growth inhibition was detected by measuring the absorbance of each well at 570 nm using a Bio-Rad 680 microplate reader. The mean absorbance for each drug dose was expressed as a percentage of the control untreated well absorbance and plotted vs. drug concentration. IC50 values, the drug concentrations that reduce the mean absorbance at 570 nm to 50% of those in the untreated control wells, were calculated by the four-parameter logistic (4-PL) model. The evaluation was based on means from at least four independent experiments.

BxPC-3 cells [2] = test: 2D cytotoxicity, MTT assay, BxPC-3; assay type: cell-based; conditions: Homo sapiens, BXPC-3, 72 h, read-out: IC50 ±S.D. BxPC-3 (2D cytotoxicity)
Method: as §1, §2

PSN-1 cells [3] = test: 3D spheroid cytotoxicity, acid phosphatase (APH) assay, PSN-1; conditions: read-out: IC50 ±S.D. PSN-1 (3D cytotoxicity); spheroids, 72 h, APH test
Method: (§3) The PDAC cancer spheroids were treated with tested compounds for 72 h, and cell viability was assessed by means of the acid phosphatase (APH) assay (Table 3).
(§4) An APH-modified assay was used for determining cell viability in 3D spheroids, as previously described [61]. Briefly, the pre-seeded spheroids were treated with fresh medium containing the compound to be studied at the appropriate concentration (range 2.5–200 μM). Triplicate cultures were established for each treatment. After 72 h, each well was treated with 100 μL of the assay buffer (0.1 M sodium acetate, 0.1% Triton-X-100, supplemented with ImmunoPure p-nitrophenyl phosphate; Sigma Chemical Co., Ltd.) and, following 3 h of incubation, 10 μL of 1 M NaOH solution was added. […] The mean absorbance for each drug dose was expressed as a percentage of the control untreated well absorbance (T/C) and plotted vs. drug concentration. […] The evaluation was based on means from at least four independent experiments.

BxPC-3 cells [4] = test: 3D spheroid cytotoxicity, acid phosphatase (APH) assay, BxPC-3; conditions: read-out: IC50 ±S.D. BxPC-3 (3D cytotoxicity); spheroids, 72 h, APH test
Method: as §3, §4

recombinant human HSP90 = recombinant human HSP90 (Homo sapiens, UniProt P07900); test: HSP90 inhibition assay (Transcreener ADP kit); assay type: biochemical
Method: The in vitro inhibitory activity of tested compounds on recombinant human HSP90 was assessed by The Transcreener™ ADP kit (Bellbrook Labs) according to the manufacturer’s protocol. Human recombinant HSP90 protein was incubated with tested compounds in the presence of 250 μM ATP at 37 °C for 30 min, 4°C for 30 min and ATPase activity was stopped via the addition of the stop and detect buffer. Following this, samples were incubated for 1 h at room temperature with the ADP2 Antibody and the ADP Alexa594 Tracer. The fluorescence intensity polarization of samples was measured with a Tecan plate reader (Tecan Infinite® M200). The evaluation was based on means from at least three independent experiments.

recombinant human PDK1 = recombinant human PDK1 (Homo sapiens, UniProt Q15118); test: ADP-Glo kinase assay, PDK1
Method: (§5) The ability of tested compounds to inhibit the activity of PDK 1–4 isoforms was primarily assessed in cell-free experiments by a chemioluminescent assay, the ADPGlo™ Kinase Assay kit from Promega (Promega Corporation, Madison, WI, USA).
(§6) The in vitro inhibitory activity of tested compounds on recombinant human PDK1-4 isoforms (Abcam, Cambridge, MA, USA) was evaluated by using the ADPGlo™ Kinase Assay kit from Promega (Promega Corporation, Madison, WI, USA) following the instructions of the manufacturer. […] The reaction was then started by the addition of substrate/ATP for 60 min at room temperature. Subsequently, ADP-Glo™ reagent was added and incubated for 40 min prior to kinase detection reagent addition. After 30 min, the luminescence was measured with a Tecan plate reader (Tecan Infinite® M200). Raw data were normalized to the values of control wells and luminescence values for each drug dose were expressed as a percentage of the luminescence of control untreated wells. […] The evaluation was based on means from at least three independent experiments.

recombinant human PDK4 = recombinant human PDK4 (Homo sapiens, UniProt Q16654); test: ADP-Glo kinase assay, PDK4; conditions: 1.5 µM compound
Method: as §5, §6

PSN-1 cells [5] = test: Mitochondrial membrane potential (Mito-ID kit); assay type: cell-based, human; conditions: IC50 concentrations
Method: The ΔΨ was assayed using the Mito-ID® Membrane Potential Kit according to the manufacturer’s instructions (Enzo Life Sciences, Farmingdale, NY, USA) as previously described. Briefly, PSN-1 cells (8 × 10^3 per well) were seeded in 96-well plates; after 24 h, cells were washed with PBS and loaded with Mito-ID Detection Reagent for 30 min at 37 °C in the dark. Afterward, cells were incubated with tested compounds for 60 min. CCCP (Carbonyl cyanide 3-chlorophenyl-hydrazone) was used as the positive control. Fluorescence intensity was estimated using a VICTOR X3 (PerkinElmer, Waltham, MA, USA) plate reader at 490 (excitation) and 590 nm (emission).

PSN-1 cells [6] = test: ROS production (CM-H2DCFDA); assay type: cell-based, human; conditions: 5 µM test compounds, antimycin 3 µM as positive control
Method: Consistently, tested compounds, although to different extents, were effective in reducing total cellular sulfhydryl contents in PSN-1-treated cells (Figure 9B).
The production of ROS was measured in PSN-1 cells (10^4 per well) grown for 24 h in a 96-well plate in RPMI medium without phenol red (Sigma Aldrich, Germany). Cells were then washed with PBS and loaded with 10 μM 5-(and-6)-chloromethyl-2′,7′-dichlorodihydrofluorescein diacetate acetylester (CM–H2DCFDA) (Molecular Probes-Invitrogen, Eugene, OR, USA) for 45 min, in the dark. Afterward, cells were washed with PBS and incubated with tested compounds. Fluorescence increase was estimated utilizing the wavelengths of 485 nm (excitation) and 527 nm (emission) in a VICTOR X3 (PerkinElmer, USA) plate reader. Antimycin (3 μM, Sigma Aldrich), a potent inhibitor of Complex III in the electron transport chain, was used as the positive control.

[7] = test system: murine Lewis Lung Carcinoma (LLC); test: In vivo anticancer activity, LLC solid tumor model; conditions: LLC-bearing C57BL mice, daily dosing days 7-14, evaluated day 15; 5i 20 mg kg−1 i.p., gemcitabine 60 mg kg−1, cisplatin 3 mg kg−1
Excerpt: Seven days after tumor inoculation the tumor-bearing mice were randomized into vehicle control and treatment groups.
The LLC was implanted intramuscularly (i.m.) as a 2 × 10^6 cell inoculum into the right hind leg of 8-week-old male and female C57BL mice (24 ± 3 g body weight). After 7 days from tumor implantation (visible tumors), mice were randomly divided into 4 groups (8 animals per group) and subjected to daily i.p. administration. […] At day 15, animals were sacrificed, the legs were amputated at the proximal end of the femur, and the inhibition of tumor growth was determined from the difference in the weights of the tumor-bearing leg and the healthy leg of the animals, expressed as a percentage referenced to the control animals. Body weight was measured at day 0 and from day 7 onwards every 2 days and was taken as a parameter for systemic toxicity. All presented values are the means ± SD of no less than three measurements.

[8] = Body weight changes of LLC-bearing mice; assay type: in vivo; conditions: LLC-bearing C57BL mice, daily dosing; gemcitabine 60 mg kg−1, cisplatin 3 mg kg−1
[9] = 72 h, MTT test, KRAS-mutant PSN-1
[10] = 72 h, MTT test, KRAS-wild-type BxPC-3

Sequence of recombinant human PDK1 (Q15118 29-436): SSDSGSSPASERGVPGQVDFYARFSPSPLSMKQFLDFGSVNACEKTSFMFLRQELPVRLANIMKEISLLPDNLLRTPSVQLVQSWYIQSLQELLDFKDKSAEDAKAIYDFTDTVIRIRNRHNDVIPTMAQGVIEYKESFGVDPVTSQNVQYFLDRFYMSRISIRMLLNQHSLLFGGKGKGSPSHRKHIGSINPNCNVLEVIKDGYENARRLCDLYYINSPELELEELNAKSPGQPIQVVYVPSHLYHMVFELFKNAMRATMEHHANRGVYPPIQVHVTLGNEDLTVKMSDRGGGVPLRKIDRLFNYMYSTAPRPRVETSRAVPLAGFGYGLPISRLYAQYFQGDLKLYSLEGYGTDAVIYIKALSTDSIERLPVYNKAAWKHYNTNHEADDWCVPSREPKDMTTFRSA
Sequence of recombinant human PDK4 (Q16654 whole entry): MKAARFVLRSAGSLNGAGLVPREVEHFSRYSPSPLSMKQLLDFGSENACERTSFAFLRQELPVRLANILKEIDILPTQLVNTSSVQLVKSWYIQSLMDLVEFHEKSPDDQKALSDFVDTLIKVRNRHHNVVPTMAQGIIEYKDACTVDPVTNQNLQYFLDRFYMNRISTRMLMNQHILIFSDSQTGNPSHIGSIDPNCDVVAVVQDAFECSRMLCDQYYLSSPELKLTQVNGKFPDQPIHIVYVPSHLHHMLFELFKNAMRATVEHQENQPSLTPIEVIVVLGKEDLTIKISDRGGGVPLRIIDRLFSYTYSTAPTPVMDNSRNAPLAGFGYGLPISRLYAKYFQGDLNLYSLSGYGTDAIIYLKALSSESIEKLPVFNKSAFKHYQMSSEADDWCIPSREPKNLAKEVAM

Row | Compound | melting point [°C] | IC50 (PSN-1 cells [1]; [9]) [µM] | IC50 (BxPC-3 cells [2]; [10]) [µM] | also measured
1 | Nc1nnc(-c2c[nH]c3ccccc23)c(-c2c[nH]c3ccccc23)n1 [5a] | 288.2 | – | – | –
2 | COc1ccc2[nH]cc(-c3nnc(N)nc3-c3cn(C)c4ccc(Br)cc34)c2c1 [5aa] | 267.8 | – | – | –
3 | Nc1nnc(-c2c[nH]c3ccc(F)cc23)c(-c2c[nH]c3ccc(F)cc23)n1 [5c] | 178.1 | – | – | –
4 | Nc1nnc(-c2c[nH]c3ccc(Br)cc23)c(-c2c[nH]c3ccc(Br)cc23)n1 [5d] | 208.2 | 0.3 ± 0.04 | 0.4 ± 0.1 | –
5 | Cn1cc(-c2nnc(N)nc2-c2cn(C)c3ccccc23)c2ccccc21 [5e] | 274.4 | – | – | –
6 | COc1ccc2c(c1)c(-c1nnc(N)nc1-c1cn(C)c3ccc(OC)cc13)cn2C [5f] | 199.5 | – | – | –
7 | Cn1cc(-c2nnc(N)nc2-c2cn(C)c3ccc(F)cc23)c2cc(F)ccc21 [5g] | 236.5 | – | – | IC50 (PSN-1 cells [3]): 5.8 ± 0.8 µM; IC50 (BxPC-3 cells [4]): 19.5 ± 2.1 µM
8 | Cn1cc(-c2nnc(N)nc2-c2cn(C)c3ccc(Br)cc23)c2ccccc21 [5j] | 257.3 | 0.4 ± 0.1 | 0.1 ± 0.04 | IC50 (PSN-1 cells [3]): 10.4 ± 1.6 µM; IC50 (BxPC-3 cells [4]): 16.7 ± 2 µM
9 | Cn1cc(-c2nc(N)nnc2-c2c[nH]c3ccccc23)c2ccccc21 [5m] | 246.6 | – | – | –
10 | Cn1cc(-c2nc(N)nnc2-c2c[nH]c3ccccc23)c2cc(F)ccc21 [5n] | 254.3 | – | – | –
11 | Cn1cc(-c2nc(N)nnc2-c2c[nH]c3ccccc23)c2cc(Br)ccc21 [5o] | 271 | 0.5 ± 0.1 | 0.2 ± 0.03 | –
12 | COc1ccc2c(c1)c(-c1nc(N)nnc1-c1c[nH]c3ccccc13)cn2C [5p] | 288.4 | – | – | –
13 | Cn1cc(-c2nc(N)nnc2-c2c[nH]c3ccc(Br)cc23)c2cc(Br)ccc21 [5r] | 239 | – | – | –
14 | Cn1cc(-c2nc(N)nnc2-c2c[nH]c3ccc(Br)cc23)c2cc(F)ccc21 [5t] | 266.9 | 0.4 ± 0.1 | 1.4 ± 0.2 | –
15 | Cn1cc(-c2nc(N)nnc2-c2c[nH]c3ccc(F)cc23)c2ccccc21 [5v] | 285.9 | 0.2 ± 0.04 | 0.2 ± 0.03 | –
16 | Cn1cc(-c2nc(N)nnc2-c2c[nH]c3ccc(F)cc23)c2cc(Br)ccc21 [5x] | 267.6 | 0.3 ± 0.1 | 0.2 ± 0.04 | IC50 (recombinant human HSP90): > 1.5 µM; IC50 (recombinant human PDK1): 0.7 µM
17 | COc1ccc2[nH]cc(-c3nnc(N)nc3-c3cn(C)c4ccc(OC)cc34)c2c1 [5y] | 205.5 | – | – | –
18 | COc1ccc2[nH]cc(-c3nnc(N)nc3-c3cn(C)c4ccccc34)c2c1 [5z] | 249.4 | – | – | –

Row | Compound | melting point [°C] | IC50 (PSN-1 cells [1]; [9]) [µM] | IC50 (BxPC-3 cells [2]; [10]) [µM] | also measured
19 | COc1ccc2[nH]cc(-c3nc(N)nnc3-c3cn(C)c4ccc(Br)cc34)c2c1 [6aa] | 241.8 | – | – | –
20 | COc1ccc2c(c1)c(-c1nnc(N)nc1-c1cn(C)c3ccc(F)cc13)cn2C [6k] | 251.2 | – | – | IC50 (PSN-1 cells [3]): 9.4 ± 0.2 µM; IC50 (BxPC-3 cells [4]): 22.3 ± 2.6 µM
21 | Cn1cc(-c2nnc(N)nc2-c2c[nH]c3ccccc23)c2ccccc21 [6m] | 311.3 | – | – | –
22 | Cn1cc(-c2nnc(N)nc2-c2c[nH]c3ccccc23)c2cc(Br)ccc21 [6o] | 291 | 0.4 ± 0.04 | 0.3 ± 0.03 | –
23 | COc1ccc2c(c1)c(-c1nnc(N)nc1-c1c[nH]c3ccccc13)cn2C [6p] | 279.6 | – | – | –
24 | Cn1cc(-c2nnc(N)nc2-c2c[nH]c3ccc(Br)cc23)c2cc(Br)ccc21 [6r] | 282.4 | – | – | –
25 | COc1ccc2c(c1)c(-c1nnc(N)nc1-c1c[nH]c3ccc(Br)cc13)cn2C [6s] | 207.7 | – | – | effect on PDK4 activity (ATP consumption) (recombinant human PDK4): completely blocked; decrease of HSP90 catalytic activity (recombinant human HSP90; 1.5 µM compound (equivalent doses)): 60–80%; IC50 (recombinant human PDK1): 0.09 ± 0.04 µM; effect on enzymatic activity of PDK1 (recombinant human PDK1; 1.5 µM compound, 30 min preincubation): totally suppressed; IC50 (PSN-1 cells [3]): 22.3 ± 2.3 µM; percentage of cells with hypopolarized mitochondrial membrane potential (in words) (PSN-1 cells [5]): significantly increased; ROS basal level production / hydrogen peroxide formation (PSN-1 cells [6]): increase in the ROS basal level production; IC50 (BxPC-3 cells [4]): 29.2 ± 1.4 µM
26 | Cn1cc(-c2nnc(N)nc2-c2c[nH]c3ccc(Br)cc23)c2cc(F)ccc21 [6t] | 314.3 | – | – | –
27 | Cn1cc(-c2nc(N)nnc2-c2c[nH]c3ccc(F)cc23)c2cc(F)ccc21 [6u] | 259.5 | – | – | –
28 | Cn1cc(-c2nnc(N)nc2-c2c[nH]c3ccc(F)cc23)c2ccccc21 [6v] | 295.8 | 0.2 ± 0.03 | 0.1 ± 0.02 | –
29 | Cn1cc(-c2nnc(N)nc2-c2c[nH]c3ccc(F)cc23)c2cc(Br)ccc21 [6x] | 270.2 | 0.3 ± 0.04 | 0.3 ± 0.1 | –
30 | COc1ccc2[nH]cc(-c3nc(N)nnc3-c3cn(C)c4ccc(OC)cc34)c2c1 [6y] | 263.3 | 0.6 ± 0.04 | 0.3 ± 0.1 | –
31 | COc1ccc2[nH]cc(-c3nc(N)nnc3-c3cn(C)c4ccccc34)c2c1 [6z] | 243.3 | – | – | –
32 | O=C(c1ccccc1)C(Cl)Cl [DAP, 2,2-dichloroacetophenone, reference compound] | – | – | – | IC50 (recombinant human PDK1): > 100 µM; IC50 (PSN-1 cells [3]): 78.2 ± 6.8 µM; IC50 (PSN-1 cells [1]): 10.2 ± 1.6 µM; IC50 (BxPC-3 cells [2]): 1.06 ± 0.9 µM; IC50 (BxPC-3 cells [4]): 87.4 ± 8.9 µM
33 | O=C(O)C(Cl)Cl [DCA, Dichloroacetic acid, reference compound] | – | – | – | IC50 (PSN-1 cells [3]): > 1000 µM; IC50 (BxPC-3 cells [4]): > 1000 µM
34 | Nc1ccn([C@@H]2O[C@H](CO)[C@@H](O)C2(F)F)c(=O)n1 [Gemcitabine, gemcitabine hydrochloride, reference compound] | – | 0.1 ± 0.04 | 0.02 ± 0.003 | reduction in tumor growth compared to the control group [7]: about 80%; body weight loss [8]: ~ 20%; IC50 (PSN-1 cells [3]): 160 ± 5.6 µM; IC50 (BxPC-3 cells [4]): 103 ± 6.3 µM
35 | N.N.[Cl][Pt][Cl] [cisplatin] | – | – | – | reduction in tumor growth compared to the control group [7]: ~ 84%; body weight loss [8]: ~ 20%
